The subject of experiment [1] is RUNX2 (Runt-related transcription factor2). Put plainly: Western blot analysis of calcification marker RUNX2 in calcification-induced valvular interstitial cells. The class given is cell-based, porcine. Particulars: compared to the calcification-induced experimental group; calcification induced for 10 days; FIG. 3. As to the method: (§1) To isolate porcine valvular interstitial cells, porcine heart valves were treated with collagenase for 15 minutes, after which endothelial cells were removed and cultured again for 24 hours. The cells obtained through centrifugation are valvular interstitial cells and were cultured in DMEM (high-glucose, Gibco) medium containing 0.1% amphotericin B, 1% penicillin-streptomycin, and 5% FBS.
(§2) To induce calcification, cells were seeded at a density of 1×10^4/ml in a 96-well culture vessel, and calcification was induced for a total of 10 days. Control medium (CM) used DMEM containing 0.1% amphotericin B, 1% penicillin-streptomycin, and 5% FBS and the pro-calcifying medium (PCM) was a control medium with 2 mM NaH2PO4 added. The medium was replaced every 2 days.
(§3) To observe if anti-calcification substances inhibit calcification, 10 uM or 100 uM paquinimod or 10 uM tasquinimod were treated, and 10% DMSO (Sigma-Aldrich) was treated as a control, and then cultured in a cell incubator at 37° C. with a 5% CO2 concentration.
(§4) After seeding cells at 5×10^4/mL in a 6-well plate, calcification was induced for a total of 10 days. […]
(§5) To lyse the cells, 1×RIPA buffer was added to each well and lysed for 10 minutes. […] Protein quantification of the obtained cell lysates was measured using Bio-Rad DC protein reagent. […]
For orientation: A western blot detects proteins with antibodies after separation by electrophoresis.

Experiment [2] has as its system porcine valvular interstitial cells. Description: Calcification of porcine valvular interstitial cells induced by NaH2PO4 (PCM), Alizarin red staining and CPC analysis. The following applies: pro-calcifying medium with 2 mM NaH2PO4, 10 days. The class given is cell-based. How it is done: as §1
To induce calcification, cells were seeded at a density of 1×10^4/ml in a 96-well culture vessel, and calcification was induced for a total of 10 days. […]
To quantify Alizarin Red stain, after washing twice with PBS, it was fixed with cold 70% ethanol at 4° C. for 1 hour, and after washing with dH2O, the sample was treated with 10% CPC (cetylpyridinium chloride, Sigma-Aldrich) for 1 hour (shaken and in the dark), transferred to a new measuring container, and measured for absorbance at 550 nm.
Interstitial cells were isolated from porcine heart valves and the inhibitory effect of paquinimod or tasquinimod on valvular calcification was confirmed according to the concentration. Porcine valve-derived cells were induced to calcify by NaH2PO4, and the degree of valvular calcification was measured after treatment with paquinimod or tasquinimod at different concentrations under the same conditions.

Another experiment concerns Osteopontin (OPN). Put plainly: Western blot analysis of calcification marker osteopontin in calcification-induced valvular interstitial cells. In kind it is cell-based, porcine. Particulars: compared to the calcification-induced experimental group; calcification induced for 10 days; FIG. 3. How it is done:
as §1, §2, §3, §4, §5

For the compound `CCc1cccc2c1c(O)c(C(=O)N(CC)c1ccccc1)c(=O)n2C` [paquinimod], in experiment [1], the “expression of RUNX2 (Western blot)” value is reported as “significantly reduced”. Also, the “degree of valvular calcification (Alizarin red staining and CPC analysis)” value in experiment [2] (10 uM or more of paquinimod (10 uM or 100 uM), FIG. 1) is given as “inhibition of valvular calcification in a concentration-dependent manner”. Besides, the “expression of osteopontin (Western blot)” value with Osteopontin (OPN) is “significantly reduced”.
Regarding `COc1cccc2c1c(O)c(C(=O)N(C)c1ccc(C(F)(F)F)cc1)c(=O)n2C` [tasquinimod], the “degree of valvular calcification” value in experiment [2] (10 uM tasquinimod, FIG. 2) is “had an inhibitory effect on valvular calcification”.

The values are drawn from patent US20250235444A1, “COMPOSITION FOR PREVENTING OR TREATING VALVULAR CALCIFICATION” (MOKPO NATIONAL UNIVERSITY INDUSTRY-ACADEMIA COOPERATION …, priority 2022, published 2025).
